# Values joined by “and” are separate entries in the source; they are usually repeats but may differ in a detail not shown here. Identical values can stand only once. HELM strings list units from the 5' end as sugar, base in round brackets, then linkage (d deoxyribose, r ribose, m 2'-O-methyl, p phosphodiester). Strings are as the collection lists them, not checked against the first reports. ss, as = sense and antisense strand; [lna] = locked nucleic acid (LNA); [una] = unlocked nucleic acid; [s4r] = 4'-thioribose; [fl2r] = 2'-fluoro
# Details: siRNA
# Also: test system not given here.
row,Substance,target mRNA knockdown
1,RNA1{r(C)p.r(U)p.r(U)p.r(A)p.r(C)p.r(G)p.r(C)p.r(U)p.r(G)p.r(A)p.r(G)p.r(U)p.r(A)p.r(C)p.r(U)p.r(U)p.r(C)p.r(G)p.r(A)p.r(T)p.r(T)}|RNA2{r(T)p.r(C)p.r(G)p.r(A)p.r(A)p.r(G)p.r(U)p.r(A)p.r(C)p.r(U)p.r(C)p.r(A)p.r(G)p.r(C)p.r(G)p.r(U)p.[lna](A)p.r(A)p.r(G)p.[lna](T)p.[lna](T)}$$$RNA1{StrandType:ss}|RNA2{StrandType:as}$,96%
2,RNA1{r(C)p.r(U)p.r(U)p.r(A)p.r(C)p.r(G)p.r(C)p.r(U)p.r(C)p.r(U)p.r(G)p.r(U)p.r(A)p.r(C)p.r(U)p.r(U)p.r(C)p.r(G)p.r(A)p.d(T)p.d(T)}|RNA2{r(U)p.r(C)p.r(G)p.r(A)p.r(A)p.r(G)p.r(U)p.r(A)p.r(C)p.r(U)p.r(C)p.r(A)p.r(G)p.r(C)p.r(G)p.r(U)p.r(A)p.r(A)p.r(G)p.d(T)p.d(T)}$$$RNA1{StrandType:ss}|RNA2{StrandType:as}$,92% and 94%
3,RNA1{r(G)p.r(U)p.r(A)p.r(U)p.r(G)p.r(A)p.r(C)p.r(C)p.r(G)p.r(A)p.r(C)p.r(U)p.r(A)p.r(C)p.r(G)p.r(C)p.r(G)p.r(U)p.r(A)p.r(T)p.r(T)}|RNA2{r(U)p.r(U)p.r(C)p.r(A)p.r(G)p.r(U)p.r(G)p.r(U)p.r(G)p.r(A)p.r(U)p.r(G)p.r(A)p.r(C)p.r(A)p.r(C)p.r(U)p.[una](U)p.r(G)p.r(T)p.r(T)}$$$RNA1{StrandType:ss}|RNA2{StrandType:as}$,91%
4,RNA1{m(G)p.m(A)p.m(G)p.m(G)p.m(A)p.m(A)p.m(G)p.m(A)p.r(U)p.m(G)p.m(A)p.m(G)p.r(U)p.r(U)p.m(G)p.r(U)p.m(A)p.r(C)p.r(C)p.r(T)p.r(T)}|RNA2{r(G)p.r(G)p.r(U)p.r(A)p.r(C)p.r(A)p.r(A)p.r(C)p.r(U)p.r(C)p.r(A)p.r(U)p.r(C)p.r(U)p.r(U)p.r(C)p.r(C)p.r(U)p.r(C)p.r(T)p.r(T)}$$$RNA1{StrandType:ss}|RNA2{StrandType:as}$,70%
5,RNA1{r(C)p.r(U)p.r(U)p.r(A)p.r(C)p.r(G)p.r(C)p.r(U)p.r(G)p.r(A)p.r(G)p.r(U)p.r(A)p.r(C)p.r(U)p.r(U)p.r(C)p.r(G)p.r(A)p.[lna](T)p.[lna](T)}|RNA2{r(U)p.r(C)p.r(G)p.r(A)p.r(A)p.r(G)p.r(U)p.r(A)p.r(C)p.r(U)p.r(C)p.r(A)p.r(G)p.r(C)p.r(G)p.r(U)p.r(A)p.r(A)p.r(G)p.r(T)p.r(T)}$$$RNA1{StrandType:ss}|RNA2{StrandType:as}$,97%
6,RNA1{m(A)p.r(U)p.m(C)p.r(U)p.m(A)p.r(C)p.m(C)p.r(C)p.m(A)p.r(G)p.m(C)p.r(U)p.m(C)p.r(U)p.m(C)p.r(C)p.m(C)p.r(U)p.m(U)p.r(T)p.r(T)}|RNA2{r(A)p.r(A)p.r(G)p.r(G)p.r(G)p.r(A)p.r(G)p.r(A)p.r(G)p.r(C)p.m(U)p.r(G)p.r(G)p.r(G)p.m(U)p.r(A)p.r(G)p.r(A)p.m(U)p.r(T)p.r(T)}$$$RNA1{StrandType:ss}|RNA2{StrandType:as}$,43%
7,RNA1{r(A)p.m(G)p.r(A)p.m(U)p.r(G)p.m(U)p.m(U)p.m(C)p.m(U)p.m(C)p.r(G)p.m(U)p.r(A)p.r(A)p.m(G)p.r(G)p.r(A)p.m(C)p.r(G)p.r(T)p.r(T)}|RNA2{r(C)p.r(G)p.r(U)p.r(C)p.r(C)p.r(U)p.r(U)p.r(A)p.r(C)p.r(G)p.r(A)p.r(G)p.r(A)p.r(A)p.r(C)p.r(A)p.r(U)p.r(C)p.r(U)p.r(T)p.r(T)}$$$RNA1{StrandType:ss}|RNA2{StrandType:as}$,53%
8,RNA1{r(C)p.r(G)p.r(U)p.r(A)p.r(C)p.r(G)p.r(C)p.r(G)p.r(G)p.r(A)p.r(A)p.r(U)p.r(A)p.r(C)p.r(U)p.r(U)p.r(C)p.r(G)p.r(A)p.r(T)p.r(T)}|RNA2{[s4r](U)p.[s4r](C)p.[s4r](G)p.[s4r](A)p.r(A)p.r(G)p.r(U)p.r(A)p.r(U)p.r(U)p.r(C)p.r(C)p.r(G)p.r(C)p.r(G)p.[s4r](U)p.[s4r](A)p.[s4r](C)p.[s4r](G)p.r(T)p.r(T)}$$$RNA1{StrandType:ss}|RNA2{StrandType:as}$,20%
9,RNA1{r(A)p.r(G)p.r(C)p.r(U)p.r(C)p.r(U)p.r(U)p.m(U)p.r(G)p.r(U)p.m(C)p.r(A)p.r(C)p.m(C)p.r(U)p.m(C)p.r(U)p.r(C)p.r(U)p.r(T)p.r(T)}|RNA2{r(A)p.r(G)p.r(A)p.r(G)p.r(A)p.r(G)p.r(G)p.m(U)p.r(G)p.r(A)p.m(C)p.r(A)p.r(A)p.r(A)p.r(G)p.r(A)p.r(G)p.r(C)p.r(U)p.r(T)p.r(T)}$$$RNA1{StrandType:ss}|RNA2{StrandType:as}$,34%
10,RNA1{r(G)p.r(C)p.r(U)p.r(G)p.r(A)p.r(A)p.r(C)p.[fl2r](U)p.r(A)p.r(G)p.r(U)p.r(C)p.r(G)p.r(A)p.r(A)p.r(A)p.r(G)p.r(A)p.r(A)p.r(T)p.r(T)}|RNA2{r(U)p.r(U)p.r(C)p.r(U)p.r(U)p.r(U)p.r(C)p.r(G)p.r(A)p.r(C)p.[fl2r](U)p.r(A)p.r(G)p.r(U)p.r(U)p.r(C)p.r(A)p.r(G)p.r(C)p.r(T)p.r(T)}$$$RNA1{StrandType:ss}|RNA2{StrandType:as}$,79%
11,RNA1{r(A)p.r(G)p.r(G)p.r(A)p.r(C)p.r(G)p.r(G)p.r(U)p.r(A)p.r(C)p.r(U)p.r(U)p.r(U)p.r(C)p.r(G)p.r(A)p.r(A)p.r(A)p.r(G)p.r(T)p.r(T)}|RNA2{r(C)p.r(U)p.r(U)p.r(U)p.r(C)p.r(G)p.r(A)p.r(A)p.r(A)p.r(G)p.r(U)p.m(A)p.r(C)p.r(C)p.r(G)p.r(U)p.r(C)p.r(C)p.r(U)p.r(T)p.r(T)}$$$RNA1{StrandType:ss}|RNA2{StrandType:as}$,46%
12,RNA1{[s4r](A)p.[s4r](A)p.[s4r](A)p.[s4r](C)p.r(A)p.r(U)p.r(G)p.r(C)p.r(A)p.r(G)p.r(A)p.r(A)p.r(A)p.r(A)p.r(U)p.r(G)p.r(C)p.r(U)p.r(G)p.r(T)p.r(T)}|RNA2{r(C)p.r(A)p.r(G)p.r(C)p.r(A)p.r(U)p.r(U)p.r(U)p.r(U)p.r(C)p.r(U)p.r(G)p.r(C)p.r(A)p.r(U)p.[s4r](G)p.[s4r](U)p.[s4r](U)p.[s4r](U)p.r(T)p.r(T)}$$$RNA1{StrandType:ss}|RNA2{StrandType:as}$,80.7%
13,RNA1{[lna](G)p.[lna](C)p.[lna](T)p.r(G)p.r(A)p.r(C)p.[lna](C)p.r(C)p.r(U)p.[lna](G)p.r(A)p.r(A)p.r(G)p.[lna](T)p.[lna](T)p.r(C)p.r(A)p.r(U)p.r(C)p.[lna](T)p.[lna](T)}|RNA2{r(G)p.r(A)p.r(U)p.r(G)p.r(A)p.r(A)p.r(C)p.r(U)p.r(U)p.r(C)p.r(A)p.r(G)p.r(G)p.r(G)p.r(U)p.r(C)p.r(A)p.r(G)p.r(C)p.[lna](T)p.[lna](T)}$$$RNA1{StrandType:ss}|RNA2{StrandType:as}$,0%
14,RNA1{r(C)p.r(G)p.r(U)p.r(A)p.r(C)p.r(G)p.r(C)p.r(G)p.r(G)p.r(A)p.r(A)p.r(U)p.r(A)p.r(C)p.r(U)p.[s4r](U)p.[s4r](C)p.[s4r](G)p.[s4r](A)p.r(T)p.r(T)}|RNA2{[s4r](U)p.[s4r](C)p.[s4r](G)p.[s4r](A)p.r(A)p.r(G)p.r(U)p.r(A)p.r(U)p.r(U)p.r(C)p.r(C)p.r(G)p.r(C)p.r(G)p.r(U)p.r(A)p.r(C)p.r(G)p.r(T)p.r(T)}$$$RNA1{StrandType:ss}|RNA2{StrandType:as}$,35.1%
15,RNA1{m(U)p.r(A)p.r(C)p.r(C)p.r(G)p.r(A)p.r(G)p.r(A)p.r(A)p.r(U)p.r(G)p.r(A)p.r(G)p.r(C)p.r(C)p.r(U)p.r(G)p.r(A)p.r(U)p.r(T)p.r(T)}|RNA2{r(A)p.r(U)p.r(C)p.r(A)p.r(G)p.r(G)p.r(C)p.r(U)p.r(C)p.r(A)p.r(U)p.r(U)p.r(C)p.r(U)p.r(C)p.r(G)p.r(G)p.m(U)p.r(A)p.r(T)p.r(T)}$$$RNA1{StrandType:ss}|RNA2{StrandType:as}$,55%
16,RNA1{r(G)p.m(U)p.r(A)p.r(C)p.r(U)p.r(C)p.r(U)p.r(G)p.r(A)p.r(U)p.r(G)p.r(A)p.r(G)p.r(G)p.r(A)p.r(A)p.r(G)p.r(A)p.r(G)p.r(T)p.r(T)}|RNA2{r(C)p.r(U)p.r(C)p.r(U)p.r(U)p.r(C)p.r(C)p.r(U)p.r(C)p.r(A)p.r(U)p.r(C)p.r(A)p.r(G)p.r(A)p.r(G)p.r(U)p.r(A)p.r(C)p.r(T)p.r(T)}$$$RNA1{StrandType:ss}|RNA2{StrandType:as}$,69%
17,RNA1{[fl2r](U)p.r(A)p.r(A)p.r(C)p.r(C)p.r(C)p.[fl2r](C)p.r(A)p.r(A)p.r(G)p.r(A)p.r(A)p.[fl2r](C)p.r(G)p.r(G)p.r(G)p.r(C)p.r(U)p.r(U)p.r(T)p.r(T)}|RNA2{r(A)p.r(A)p.r(G)p.r(C)p.r(C)p.r(C)p.[fl2r](G)p.r(U)p.r(U)p.r(C)p.r(U)p.[fl2r](U)p.r(G)p.r(G)p.r(G)p.r(G)p.r(U)p.[fl2r](U)p.r(A)p.r(T)p.r(T)}$$$RNA1{StrandType:ss}|RNA2{StrandType:as}$,72%
18,RNA1{r(C)p.r(U)p.r(U)p.r(A)p.r(C)p.r(G)p.r(C)p.r(U)p.r(G)p.r(A)p.r(G)p.r(U)p.r(A)p.r(C)p.r(U)p.r(U)p.r(C)p.r(G)p.r(A)p.d(T)p.d(T)}|RNA2{r(U)p.r(C)p.r(G)p.r(A)p.r(A)p.r(G)p.r(U)p.r(A)p.r(C)p.[lna](T)p.r(C)p.r(A)p.r(G)p.r(C)p.r(G)p.r(U)p.r(A)p.r(A)p.r(G)p.[lna](T)p.r(T)}$$$RNA1{StrandType:ss}|RNA2{StrandType:as}$,93%
19,RNA1{m(A)p.m(A)p.r(C)p.r(C)p.r(C)p.m(A)p.r(C)p.r(C)p.m(A)p.r(C)p.m(A)p.r(G)p.r(C)p.m(U)p.m(A)p.r(G)p.m(A)p.m(A)p.r(C)p.r(U)p.r(U)}|RNA2{r(A)p.r(A)p.r(G)p.r(U)p.r(U)p.r(C)p.m(U)p.r(A)p.r(G)p.r(C)p.r(U)p.r(G)p.r(U)p.r(G)p.r(G)p.r(U)p.r(G)p.r(G)p.r(G)p.r(U)p.r(U)}$$$RNA1{StrandType:ss}|RNA2{StrandType:as}$,32%
20,RNA1{r(G)p.r(A)p.r(G)p.r(G)p.r(A)p.r(A)p.r(G)p.r(A)p.m(U)p.r(G)p.r(A)p.r(G)p.r(U)p.m(U)p.r(G)p.m(U)p.r(A)p.r(C)p.r(C)p.r(T)p.r(T)}|RNA2{r(G)p.r(G)p.r(U)p.r(A)p.m(C)p.r(A)p.r(A)p.r(C)p.r(U)p.m(C)p.r(A)p.r(U)p.r(C)p.r(U)p.r(U)p.r(C)p.r(C)p.r(U)p.r(C)p.r(T)p.r(T)}$$$RNA1{StrandType:ss}|RNA2{StrandType:as}$,76%
